The values below come from ChEMBL document CHEMBL5608217, “New potent EV-A71 antivirals targeting capsid” (Eur J Med Chem, 2024).

In general, EC50 refers to the concentration that produces a half-maximal response. One may read the CC50 as the concentration at which the toxic effect on the cells reaches its halfway point. Higher therefore signals better tolerance by the cells.

Data set [1] concerns Enterovirus A71. Description: Antiviral activity against Enterovirus A71 infected in human MRC5 cells assessed as reduction in viral replication incubated for 72 hrs by RT-qPCR analysis. Type of data set: functional, organism-based. The conditions noted are these: Enterovirus A, MRC5, 72 h. (In general: In qPCR the cycle at which signal appears reflects the starting amount.)

For data set [2], the system named is Enterovirus A71. The experiment in a line: Antiviral activity against Enterovirus A71 infected in human RD cells assessed as reduction in viral replication incubated for 72 hrs by RT-qPCR analysis. The conditions noted are these: Enterovirus A. Type of data set: functional, organism-based.
Data set [3] in a line: Cytotoxicity against human MRC5 cells. Type of data set: toxicity, cell-based.
A short description of data set [4]: Cytotoxicity against human RD cells. Type of data set: toxicity, cell-based.
The nature of data set [5]: Cytotoxicity against Chinese hamster CHO-K1 cells incubated for 24 hrs by neutral red dye uptake assay. Type of data set: toxicity, cell-based, Cricetulus griseus.
A short description of data set [6]: Selectivity index, ratio of CC50 for cytotoxicity against human MRC5 cells to EC50 for antiviral activity against Enterovirus A71 infected in human MRC5 cells. Type of data set: toxicity, cell-based. The conditions noted are these: read-out: Ratio CC50/EC50.
Data set [7] is described as follows: Genotoxicity in Chinese hamster CHO-K1 cells assessed as increase in micronucleated cell rate at […] incubated for 3 hrs in presence of Sprague-Dawley rat liver S9 fraction by Giemsa staining based micronucleus assay. Type of data set: toxicity, subcellular, Cricetulus griseus. The conditions noted are these: s9, 3 h, dose lower 1 g/L.
Data set [8] is described as follows: Genotoxicity in Chinese hamster CHO-K1 cells assessed as increase in micronucleated cell rate at […] incubated for 3 hrs in absence of Sprague-Dawley rat liver S9 fraction by Giemsa staining based micronucleus assay. Type of data set: toxicity, Cricetulus griseus. The conditions noted are these: cho-k1, 3 h, dose lower 1 g/L.
Data set [9] is described as follows: Selectivity index, ratio of CC50 for cytotoxicity against human RD cells to EC50 for antiviral activity against Enterovirus A71 infected in human RD cells. Type of data set: toxicity, cell-based. The conditions noted are these: read-out: Ratio CC50/EC50.
Data set [10] deals with Enterovirus A71. The experiment in a line: Antiviral activity against Enterovirus A71 infected in human MRC5 cells assessed as inhibition of viral replication at 0.31 to 40 uM incubated for 72 hrs by RT-qPCR analysis relative to control. The conditions noted are these: dose 0.31-40 µM. Type of data set: functional.
For data set [11], the system named is Enterovirus A71. The experiment in a line: Antiviral activity against Enterovirus A71 infected in human RD cells assessed as inhibition of viral replication at 0.31 to 40 uM incubated for 72 hrs by RT-qPCR analysis relative to control. Type of data set: functional. The conditions noted are these: dose 0.31-40 µM.
In data set [12] the test system is rhinovirus B14. Description: Antiviral activity against Human rhinovirus B14 infected in human HeLa-RH cells assessed as inhibition of virus induced cytopathic effect incubated for 3 days by MTS assay. Type of data set: functional, organism-based. The conditions noted are these: Rhinovirus B, 72 h.

The source made the active and inactive calls. The rule behind the calls is not given here.

Consider `COc1ccc2oc(SCc3ccc(-c4ccc(N(C)C)cc4)cc3)nc2c1`, for which the EC50 in [1] was above 20 µM.

As for `OCc1ccc(-c2ccc(SCc3ccc(-n4cncn4)cc3)nc2)cc1`, the EC50 in data set [1] was determined as 0.29 µM; in [2], 1.66 µM. Besides, the cytotoxic concentration (CC50) in [3] is above 20 µM; in data set [4], above 40 µM. In [5], this compound returned a CC50 at 24 h of 41.3 µM. Also, the values for the selectivity ratio in data set [6] and in data set [9] were above 68 and above 24, respectively. In addition, the Activity result in data set [7] and in data set [8] was “Non-Toxic” in each case. Besides, the inhibition entry in [10] and in data set [11] was “Active” throughout.

With `c1ncn(-c2ccc(CSc3ccc(-c4ccc(N5CCOCC5)cc4)cc3)cc2)n1`, the concentration giving a half-maximal response (EC50) in data set [1] was above 20 µM.

With `OCc1ccc(-c2ccc(SCc3ccc(-c4ccc(O)cc4)cc3)nc2)cc1`, the 50% effective concentration (EC50) in [1] is above 20 µM.

Regarding `Cc1ccc(-c2ccc(SCc3ccc(-n4cncn4)cc3)cc2)cc1`, the EC50 in [1] was above 20 µM.

In the case of `CN(C)c1ccc(-c2ccc(CSc3ccc(-c4ccc(CO)cc4)cn3)cc2)cc1`, the EC50 in data set [1] is above 20 µM.

As for `O=Cc1ccc(-c2ccc(SCc3ccc(-n4cncn4)cc3)nc2)cc1`, the EC50 in [1] was above 20 µM.

Turning to `c1ccc2oc(SCc3ccc(-n4cncn4)cc3)nc2c1`, the EC50 in data set [1] was above 20 µM.

Regarding `c1ccc2nc(SCc3ccc(-n4cncn4)cc3)ccc2c1`, the EC50 in data set [1] is 39.7 µM; in [2] it was above 40 µM. For the same compound, the CC50 in data set [3] and in data set [4] was above 40 µM throughout.

As to `CCOc1ccc(-c2ccc(CSc3ccc(-c4ccc(CO)cc4)cc3)cc2)cc1`, the EC50 in data set [1] is above 20 µM.

Regarding `CN1CCC(c2ccc(-c3ccc(CSc4ccc(-c5ccc(CO)cc5)cn4)cc3)cc2)CC1`, the EC50 in [1] was above 20 µM.

In the case of `COc1ccc2oc(SCc3ccc(-n4cncn4)cc3)nc2c1`, the EC50 was found to be 1.67 µM in data set [1] and 28.5 µM in [2]. In addition, the figures for the CC50 in [3] and in data set [4] were above 20 µM and 22.1 µM, respectively. Further, the midpoint of cytotoxicity in [5], the CC50 at 24 h, lay at 32.1 µM. For the same compound, in data set [6], the selectivity ratio is below 1. Moreover, the Activity entry in data set [7] and in data set [8] was “Non-Toxic” each time.

With `CCOc1ccc(-c2ccc(SCc3ccc(-n4cncn4)cc3)nc2)cc1`, the EC50 in [1] was above 20 µM.

In the case of `Cn1nccc1-c1ccc(SCc2ccc(-n3cncn3)cc2)nc1`, the concentration for a half-maximal effect (EC50) in data set [1] was above 20 µM.

As for `COc1cc(C[C@H](O)c2ccc(C#N)cc2)c([N+](=O)[O-])cc1OC`, the half-maximal effective concentration (EC50) in data set [12] came to 2 µM.

For the compound `Clc1ccc2oc(SCc3ccc(-n4cncn4)cc3)nc2c1`, in data set [1], the 50% effective concentration (EC50) was above 20 µM.

Turning to `Cc1ccc2oc(SCc3ccc(-n4cncn4)cc3)nc2c1`, the 50% effective concentration (EC50) in data set [1] was above 20 µM.

Turning to `c1ccc2nc(SCc3ccc(-n4cncn4)cc3)cnc2c1`, the values for the EC50 in [1] and in data set [2] were 38.1 µM and 6.8 µM, respectively. For the same compound, the half-maximal cytotoxic concentration (CC50) in data set [3] and in [4] was above 40 µM throughout.

As to `CCOc1ccc(-c2ccc(SCc3ccc(-n4cncn4)cc3)cc2)cc1`, in [1], the half-maximal effective concentration (EC50) was above 20 µM.

As to `c1ccc2sc(SCc3ccc(-n4cncn4)cc3)nc2c1`, the EC50 in data set [1] is above 20 µM.

Regarding `Cc1cccc2c1[nH]c1nc(SCc3ccc(-n4cncn4)cc3)nnc12`, the EC50 in data set [1] is 26.5 µM; in [2], 4.65 µM. The results for the CC50 in data set [3] and in [4] were 15.6 µM and 8.89 µM, respectively.

In the case of `Fc1ccc(-c2ccc(SCc3ccc(-n4cncn4)cc3)cc2)cc1C(F)(F)F`, in [1], the EC50 was above 20 µM.

Regarding `Cn1nccc1-c1ccc(SCc2ccc(-n3cncn3)cc2)cc1`, the results for the EC50 in data set [1] and in [2] were 0.57 µM and 4.38 µM, respectively. The 50% cytotoxic concentration (CC50) in data set [3] is above 20 µM; in [4] it was above 40 µM. This compound also returned a CC50 at 24 h in data set [5] of 44.8 µM. In addition, the selectivity ratio in [6] was above 35; in data set [9], above 9. The Activity result in [7] and in [8] was “Non-Toxic” throughout. Also, the “inhibition (INH)” value in [10] and in data set [11] was 100% throughout.

With `CCOc1ccc(-c2ccc(CSc3nc4cc(OC)ccc4o3)cc2)cc1`, the half-maximal effective concentration (EC50) in data set [1] is above 20 µM.

On to `CCOc1ccc(-c2ccc(CSc3ccc(-c4ccc(CO)cc4)cn3)cc2)cc1`, for which the EC50 in data set [1] was above 20 µM.

Consider `COc1ccc2[nH]c(SCc3ccc(-n4cncn4)cc3)nc2c1`, for which the 50% effective concentration (EC50) in [1] and in data set [2] was above 40 µM throughout. In addition, the CC50 in [3] and in data set [4] was above 40 µM each time.

With `CCOc1noc2cc(OCCC3CCN(c4ccc(C)nn4)CC3)ccc12` [VAPENDAVIR], the CC50 in [3] was above 20 µM; in data set [4], above 63 µM.

Regarding `OCc1ccc(-c2ccc(SCc3ccc(-c4ccc(C(F)(F)F)cc4)cc3)nc2)cc1`, the EC50 in data set [1] is above 20 µM.

Take `OCc1ccc(-c2ccc(SCc3ccc(-c4ccc(N5CCOCC5)cc4)cc3)nc2)cc1`: the values for the concentration giving a half-maximal response (EC50) in data set [1] and in [2] were 6.38 µM and 19.7 µM, respectively. Besides, the results for the half-maximal cytotoxic concentration (CC50) in data set [3] and in data set [4] were above 20 µM and above 40 µM, respectively. The same compound had a CC50 at 24 h in data set [5] of 45.8 µM. Also, the figures for the selectivity ratio in [6] and in [9] were above 3.1 and above 2, respectively. Besides, the Activity result in data set [7] and in data set [8] was “Non-Toxic” in each case.

`FC(F)(F)c1ccc(-c2ccc(SCc3ccc(-n4cncn4)cc3)cc2)cc1`: in data set [1], the EC50 is above 20 µM.

On to `FC(F)(F)c1ccc2c(SCc3ccc(-n4cncn4)cc3)ccnc2c1`, for which the EC50 turned out to be 28 µM in data set [1] and 12.7 µM in [2]. Moreover, the 50% cytotoxic concentration (CC50) is above 40 µM in [3] and 20.8 µM in data set [4].

With `OCc1ccc(-c2ccc(SCc3ccc(-n4cncn4)cc3)cc2)cc1`, the EC50 in data set [1] is above 20 µM.

Consider `CN(C)c1ccc(-c2ccc(SCc3ccc(-n4cncn4)cc3)cc2)cc1`, for which the EC50 in data set [1] is above 20 µM.

As for `c1ccc2[nH]c(SCc3ccc(-n4cncn4)cc3)nc2c1`, the half-maximal effective concentration (EC50) in data set [1] is above 20 µM.
